In patent US20210283053A1, “LIQUID FORMULATIONS OF GLUCAGON ANALOGUES” (Zealand Pharma A/S, priority 2020, published 2021):

Tested on: RYGB-operated individuals with confirmed postprandial hypoglycaemia
Assay: Crossover study with liquid mixed meal test, postprandial hypoglycaemia after Roux-en-Y gastric bypass
Type: in vivo, human
Details: for time spent in level 2 hypoglycaemia (<3.1 mmol/l): n=5, placebo 31.0±5; for nadir PG: placebo 3.0±0.2; for time spent in hypoglycaemia (<3.9 mmol/l): placebo 62.0±8; for PG incremental AUC (iAUC70-240 min) after drug administration: placebo 752±19, p<0.0001
Description: Postprandial hypoglycaemia is a frequent and debilitating complication following Roux-en-Y gastric bypass (RYGB), and no effective treatment exists. In a proof-of-concept study, we investigated the effects of dasiglucagon, a novel, stable glucagon analogue, on postprandial hypoglycaemia after RYGB. The primary aim of the present study was to examine the effects of two doses of dasiglucagon on the postprandial nadir plasma glucose concentration (PG) and time spent in hypoglycaemia (<3.9 mmol/l) in RYGB-operated individuals with confirmed postprandial hypoglycaemia.
Ten RYGB-operated individuals (two males, eight females; BMI 34.6 (21.8-39.0) kg/m^2; age 46 (29-67) years; HbA1c 32 (29-42) mmol/mol; time since operation 9.3 (6-11.5) years; weight loss since operation 53.9 (25.1-92.0) kg)) with confirmed symptomatic postprandial hypoglycaemia (PG<3.5 mmol/l verified by a 6-day continuous glucose monitoring) completed a double-blinded, randomised, crossover study comprising three separate treatment days, each including a standardised liquid mixed meal test (25 kJ per kg body mass; 50 E % carbohydrates, 35 E % fat and 15 E % protein). A subcutaneous injection of either placebo, 80 or 200 μg dasiglucagon (D80μg and D200μg) was administered after the postprandial PG peak, approximately 10 minutes before the projected time point where the PG returned to fasting levels using a subject-specific linear regression model. Blood sampling and assessment of hypoglycaemic symptoms, by the Edinburgh Hypoglycaemia Symptom Scale, were performed at fixed time intervals. Data were analysed using linear mixed models and Tukey's corrections model for multiple comparisons.

Hy-HSQGTFTSDYSKYLD-Aib-ARAEEFVKWLEST-OH [Compound 1, glucagon analogue (dasiglucagon)]
time spent in level 2 hypoglycaemia (<3.1 mmol/l) (80 μg subcutaneous, p>0.05): 7 ± 5 min | nadir PG (80 μg subcutaneous, p=0.002): 3.9 ± 0.3 mmol/L | time spent in hypoglycaemia (<3.9 mmol/l) (80 μg subcutaneous, p=0.05): 27.5 ± 12 min | PG incremental AUC (iAUC70-240 min) after drug administration (80 μg subcutaneous): 917 ± 22 mmol·min/L | participants who experienced level 2 hypoglycaemia (<3.1 mmol/l) (200 μg subcutaneous, five participants after placebo): none | time spent in level 2 hypoglycaemia (<3.1 mmol/l) (200 μg subcutaneous, p=0.01): 0.0 ± 0 min | nadir PG (200 μg subcutaneous, p=0.0002): 4.5 ± 0.2 mmol/L | time spent in hypoglycaemia (<3.9 mmol/l) (200 μg subcutaneous, p=0.003): 14.0 ± 9 min | PG incremental AUC (iAUC70-240 min) after drug administration (200 μg subcutaneous): 992 ± 28 mmol·min/L | changes in hypoglycaemic symptoms (Edinburgh Hypoglycaemia Symptom Scale) (between the three study days (placebo, 80 and 200 μg)): no significant changes
